Values of other authors as cited in patent publication US6589744B2, “Method and kit for identification for nucleic acid modification enzymes and inhibitors thereof” (Syngenta Participations AG, priority 2001, dated 2003).

Target: T1, T4 DNA ligase (Enterobacteria phage T4, UniProt P00970)
T1 sequence (P00970 1-487): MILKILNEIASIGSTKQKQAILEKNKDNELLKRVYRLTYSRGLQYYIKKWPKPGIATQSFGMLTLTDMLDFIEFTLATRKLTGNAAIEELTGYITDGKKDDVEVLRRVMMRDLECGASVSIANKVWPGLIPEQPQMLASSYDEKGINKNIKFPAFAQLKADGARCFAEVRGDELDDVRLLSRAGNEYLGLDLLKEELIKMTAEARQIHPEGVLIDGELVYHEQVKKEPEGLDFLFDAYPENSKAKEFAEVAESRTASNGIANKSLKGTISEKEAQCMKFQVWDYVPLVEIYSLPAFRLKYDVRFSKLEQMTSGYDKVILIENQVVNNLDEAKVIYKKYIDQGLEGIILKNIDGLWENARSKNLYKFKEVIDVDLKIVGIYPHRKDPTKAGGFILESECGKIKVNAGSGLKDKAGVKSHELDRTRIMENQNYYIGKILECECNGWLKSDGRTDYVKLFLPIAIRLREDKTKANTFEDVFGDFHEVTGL
Conditions: previously determined, radiolabeled substrates and PAGE gel shift assays (Montecucco et al.)

IC50: 2700 nM
Structure (SMILES): COc1cccc2c1C(=O)c1c(O)c3c(c(O)c1C2=O)C[C@@](O)(C(=O)CO)C[C@@H]3O[C@H]1C[C@H](N)[C@@H](O)[C@H](C)O1 [Epirubicin, epirubicin]
